Data as given in ChEMBL document CHEMBL3124747, “Formosusin A, a novel specific inhibitor of mammalian DNA polymerase β from the fungus Paecilomyces formosus” (Bioorg Med Chem, 2014).

How the values were obtained:
[1] = biological target: DNA-directed DNA/RNA polymerase mu (Homo sapiens, UniProt Q9NP87); assay: Inhibition of human His-tagged recombinant DNA polymerase mu expressed in Escherichia coli BL21 assessed as inhibition of incorporation of dTTP into poly(dA)/oligo(dT)18 after 60 mins
[2] = Inhibition of fruit fly DNA polymerase epsilon assessed as inhibition of incorporation of dTTP into poly(dA)/oligo(dT)18 after 60 mins; parameters: species or system Drosophila melanogaster
DNA polymerase kappa = biological target: T1, DNA polymerase kappa (Homo sapiens, UniProt Q9UBT6); assay: Inhibition of C-terminal His-6-tagged human DNA polymerase kappa expressed in Escherichia coli assessed as inhibition of incorporation of dTTP into poly(dA)/oligo(dT)18 after 60 mins
T1 sequence (Q9UBT6 whole entry): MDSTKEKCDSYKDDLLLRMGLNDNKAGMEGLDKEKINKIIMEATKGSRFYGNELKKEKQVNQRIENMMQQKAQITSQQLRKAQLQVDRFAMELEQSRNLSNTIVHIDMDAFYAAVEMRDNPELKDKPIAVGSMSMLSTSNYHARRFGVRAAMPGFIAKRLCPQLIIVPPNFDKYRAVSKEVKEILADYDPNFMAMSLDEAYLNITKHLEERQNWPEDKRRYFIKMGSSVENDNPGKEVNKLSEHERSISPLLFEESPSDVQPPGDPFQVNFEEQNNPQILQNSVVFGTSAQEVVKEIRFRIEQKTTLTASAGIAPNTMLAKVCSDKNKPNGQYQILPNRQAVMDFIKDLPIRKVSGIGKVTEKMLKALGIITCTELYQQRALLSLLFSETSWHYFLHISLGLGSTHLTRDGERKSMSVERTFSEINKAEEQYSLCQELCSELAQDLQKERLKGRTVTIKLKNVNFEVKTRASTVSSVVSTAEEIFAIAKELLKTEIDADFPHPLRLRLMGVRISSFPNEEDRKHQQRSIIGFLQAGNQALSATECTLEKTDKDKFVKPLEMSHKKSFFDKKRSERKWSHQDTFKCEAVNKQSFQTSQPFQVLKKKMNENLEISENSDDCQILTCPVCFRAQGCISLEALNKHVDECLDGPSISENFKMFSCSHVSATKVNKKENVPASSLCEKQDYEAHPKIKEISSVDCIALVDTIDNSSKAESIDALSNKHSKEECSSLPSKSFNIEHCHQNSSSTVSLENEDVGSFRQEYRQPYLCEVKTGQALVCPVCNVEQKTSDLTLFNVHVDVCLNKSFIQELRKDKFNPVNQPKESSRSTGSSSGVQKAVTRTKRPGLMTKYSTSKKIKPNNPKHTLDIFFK

[3] = Inhibition of DNA polymerase epsilon isolated from human MOLT4 cells assessed as inhibition of incorporation of dTTP into poly(dA)/oligo(dT)18 after 60 mins; type: cell-free; settings: molt-4
[4] = biological target: Human immunodeficiency virus type 1 reverse transcriptase (Human immunodeficiency virus 1, UniProt Q72547); assay: Inhibition of HIV-1 reverse transcriptase assessed as inhibition of incorporation of dTTP into poly(rA)/oligo(dT)18 after 60 mins
DNA polymerase lambda = biological target: T2, DNA polymerase lambda (Homo sapiens, UniProt Q9UGP5); assay: Inhibition of human recombinant His-tagged DNA polymerase lambda expressed in Escherichia coli assessed as inhibition of incorporation of dTTP into poly(dA)/oligo(dT)18 after 60 mins
T2 sequence (Q9UGP5 whole entry): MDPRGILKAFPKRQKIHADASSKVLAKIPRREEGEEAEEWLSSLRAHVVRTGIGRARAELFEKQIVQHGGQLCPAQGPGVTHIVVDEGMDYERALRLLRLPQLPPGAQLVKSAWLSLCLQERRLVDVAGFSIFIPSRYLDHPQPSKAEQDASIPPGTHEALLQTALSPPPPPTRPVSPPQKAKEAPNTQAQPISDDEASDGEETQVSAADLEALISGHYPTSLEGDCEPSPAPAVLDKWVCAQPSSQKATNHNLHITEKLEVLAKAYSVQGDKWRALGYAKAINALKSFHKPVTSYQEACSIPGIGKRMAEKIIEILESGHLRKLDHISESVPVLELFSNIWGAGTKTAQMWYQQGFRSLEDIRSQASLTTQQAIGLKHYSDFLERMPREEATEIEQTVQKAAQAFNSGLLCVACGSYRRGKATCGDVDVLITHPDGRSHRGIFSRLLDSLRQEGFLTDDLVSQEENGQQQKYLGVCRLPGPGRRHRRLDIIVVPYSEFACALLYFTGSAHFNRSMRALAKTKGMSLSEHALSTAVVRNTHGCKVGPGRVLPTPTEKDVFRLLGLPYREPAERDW

[5] = Inhibition of calf thymus DNA polymerase alpha assessed as inhibition of incorporation of dTTP into poly(dA)/oligo(dT)18 after 60 mins; parameters: species or system Bos taurus
DNA polymerase eta = biological target: T3, DNA polymerase eta (Homo sapiens, UniProt Q9Y253); assay: Inhibition of C-terminal His-6-tagged human DNA polymerase eta expressed in Escherichia coli assessed as inhibition of incorporation of dTTP into poly(dA)/oligo(dT)18 after 60 mins
T3 sequence (Q9Y253 whole entry): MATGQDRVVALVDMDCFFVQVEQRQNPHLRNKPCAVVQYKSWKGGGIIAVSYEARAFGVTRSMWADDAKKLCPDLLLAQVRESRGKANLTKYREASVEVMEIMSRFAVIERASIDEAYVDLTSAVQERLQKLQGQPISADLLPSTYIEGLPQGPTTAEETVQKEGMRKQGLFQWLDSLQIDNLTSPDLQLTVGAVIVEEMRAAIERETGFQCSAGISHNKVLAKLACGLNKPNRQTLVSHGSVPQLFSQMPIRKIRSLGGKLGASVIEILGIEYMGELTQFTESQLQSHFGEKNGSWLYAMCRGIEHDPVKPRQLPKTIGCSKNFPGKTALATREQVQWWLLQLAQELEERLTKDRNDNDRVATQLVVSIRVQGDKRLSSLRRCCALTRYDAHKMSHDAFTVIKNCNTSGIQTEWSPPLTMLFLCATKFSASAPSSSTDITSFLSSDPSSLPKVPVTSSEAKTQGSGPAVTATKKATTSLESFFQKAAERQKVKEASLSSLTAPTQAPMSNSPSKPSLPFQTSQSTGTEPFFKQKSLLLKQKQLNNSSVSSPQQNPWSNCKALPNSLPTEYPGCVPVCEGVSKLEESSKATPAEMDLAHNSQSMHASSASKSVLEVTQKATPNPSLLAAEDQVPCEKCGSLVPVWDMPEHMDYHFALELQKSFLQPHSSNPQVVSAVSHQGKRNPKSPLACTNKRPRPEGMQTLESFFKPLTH

[6] = Inhibition of Escherichia coli polymerase DNA polymerase 1 klenow fragment assessed as inhibition of incorporation of dTTP into poly(dA)/oligo(dT)18 after 60 mins
[7] = Inhibition of Thermus aquaticus DNA polymerase assessed as inhibition of incorporation of dTTP into poly(dA)/oligo(dT)18 after 60 mins
[8] = Inhibition of cauliflower DNA polymerase alpha assessed as inhibition of incorporation of dTTP into poly(dA)/oligo(dT)18 after 60 mins; parameters: species or system Brassica oleracea var. botrytis

Measured: IC50

Chain of DNA-directed DNA/RNA polymerase mu (Q9NP87 whole entry): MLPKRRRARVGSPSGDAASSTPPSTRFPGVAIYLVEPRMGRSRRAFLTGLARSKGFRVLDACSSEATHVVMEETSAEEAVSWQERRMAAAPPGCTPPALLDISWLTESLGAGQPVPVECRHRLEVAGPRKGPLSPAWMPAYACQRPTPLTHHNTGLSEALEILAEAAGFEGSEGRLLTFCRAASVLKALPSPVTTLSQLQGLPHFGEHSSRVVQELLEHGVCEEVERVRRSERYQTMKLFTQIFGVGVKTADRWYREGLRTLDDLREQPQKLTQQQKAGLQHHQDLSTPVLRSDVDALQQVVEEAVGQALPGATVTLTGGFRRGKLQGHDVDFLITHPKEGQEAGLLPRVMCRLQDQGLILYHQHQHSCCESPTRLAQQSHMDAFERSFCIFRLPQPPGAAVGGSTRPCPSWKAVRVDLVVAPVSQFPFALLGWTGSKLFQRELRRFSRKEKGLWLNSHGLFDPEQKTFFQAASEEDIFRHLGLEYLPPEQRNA

CC(/C=C/CCC(=O)N1CCCC1=O)=C\C1CCCCO1 (centres undefined)
> 200 µM: all assays above

CCCC[C@@H](O)/C=C(C)/C=C/C=C/C(=O)N1CCCC1=O [PECILOCIN]
> 200 µM: all assays above

CCCC[C@@H](O)/C=C(C)/C=C/C=C\C(=O)N1CCCC1=O
> 200 µM: all assays above

CCCCC(=O)/C=C(C)/C=C/CCC(=O)N1CCCC1=O
> 200 µM: all assays above
